biological target: PIM1 (Homo sapiens (Human), UniProt P11309); assay: biochemical; assay type: biochemical; details: 20 pM PIM1, 1 μM FAM-peptide, 10 μM ATP, 90 minutes at room temperature; read-out: PIM1 LC3K (KI)
Sequence (P11309 whole entry): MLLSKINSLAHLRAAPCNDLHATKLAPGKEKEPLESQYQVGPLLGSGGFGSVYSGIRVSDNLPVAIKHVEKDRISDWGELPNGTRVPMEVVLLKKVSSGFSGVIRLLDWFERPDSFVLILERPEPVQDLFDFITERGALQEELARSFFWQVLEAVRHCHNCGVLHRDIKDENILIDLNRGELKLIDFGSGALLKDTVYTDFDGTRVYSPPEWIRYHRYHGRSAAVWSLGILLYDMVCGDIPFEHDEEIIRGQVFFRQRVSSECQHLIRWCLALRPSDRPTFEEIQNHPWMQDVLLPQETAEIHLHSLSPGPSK

SMILES | Ki [nM]
Cn1ncc(NC(=O)c2nc(-c3c(F)ccc(F)c3F)sc2N)c1[C@@H]1CC[C@@H](N)[C@H](F)CO1 [Example 332, 5-amino-N-(5-((2S,5R,6S)-5-amino-6-fluorooxepan-2-yl)-1-methyl-1H-pyrazol-4-yl)-2-(2,3,6-trifluorophenyl)thiazole-4-carboxamide] | 0.003
Cn1ncc(NC(=O)c2nc(C3=CCCC3)sc2N)c1[C@@H]1CC[C@@H](N)[C@H](F)CO1 [Example 333, 5-amino-N-(5-((2S,5R,6S)-5-amino-6-fluorooxepan-2-yl)-1-methyl-1H-pyrazol-4-yl)-2-(cyclopent-1-en-1-yl)thiazole-4-carboxamide] | 0.03
Cn1ncc(NC(=O)c2nc(C3CCCC3)sc2N)c1[C@@H]1CC[C@@H](N)[C@H](F)CO1 [Example 334, 5-amino-N-(5-((2S,5R,6S)-5-amino-6-fluorooxepan-2-yl)-1-methyl-1H-pyrazol-4-yl)-2-cyclopentylthiazole-4-carboxamide] | 0.453
Cn1ncc(NC(=O)c2nc(-c3ccccc3C(F)F)sc2N)c1[C@@H]1CC[C@@H](N)[C@H](F)CO1 [Example 335, 5-amino-N-(5-((2S,5R,6S)-5-amino-6-fluorooxepan-2-yl)-1-methyl-1H-pyrazol-4-yl)-2-(2-(difluoromethyl)phenyl)thiazole-4-carboxamide] | 0.092
Cn1ncc(NC(=O)c2nc(-c3cccc(F)c3C(F)(F)F)sc2N)c1[C@@H]1CC[C@@H](N)[C@H](F)CO1 [Example 336, 5-amino-N-(5-((2S,5R,6S)-5-amino-6-fluorooxepan-2-yl)-1-methyl-1H-pyrazol-4-yl)-2-(3-fluoro-2-(trifluoromethyl)phenyl)thiazole-4-carboxamide] | 0.188
Cn1ncc(NC(=O)c2nc(-c3cccc(F)c3Cl)sc2N)c1[C@@H]1CC[C@@H](N)[C@H](F)CO1 [Example 337, 5-amino-N-(5-((2S,5R,6S)-5-amino-6-fluorooxepan-2-yl)-1-methyl-1H-pyrazol-4-yl)-2-(2-chloro-3-fluorophenyl)thiazole-4-carboxamide] | 0.015
Cn1ncc(NC(=O)c2nc(-c3cccc(Cl)c3F)sc2N)c1[C@@H]1CC[C@@H](N)[C@H](F)CO1 [Example 338, 5-amino-N-(5-((2S,5R,6S)-5-amino-6-fluorooxepan-2-yl)-1-methyl-1H-pyrazol-4-yl)-2-(3-chloro-2-fluorophenyl)thiazole-4-carboxamide] | 0.007
Cn1ncc(NC(=O)c2csc(-c3c(F)cncc3Cl)n2)c1[C@@H]1CC[C@@H](N)[C@H](F)CO1 [Example 349, N-(5-((2S,5R,6S)-5-amino-6-fluorooxepan-2-yl)-1-methyl-1H-pyrazol-4-yl)-2-(3-chloro-5-fluoropyridin-4-yl)thiazole-4-carboxamide] | 3.12
Cn1ncc(NC(=O)c2csc(-c3c(F)cccc3F)n2)c1[C@@H]1CC[C@@H](N)[C@@H](O)CO1 [Example 350, N-(5-((2S,5R,6R)-5-amino-6-hydroxyoxepan-2-yl)-1-methyl-1H-pyrazol-4-yl)-2-(2,6-difluorophenyl)thiazole-4-carboxamide] | > 667
Cn1ncc(NC(=O)c2csc(-c3c(F)cccc3F)n2)c1[C@@H]1CC[C@@H](N)[C@H](O)CO1 [Example 352, N-(5-((2S,5R,6S)-5-amino-6-hydroxyoxepan-2-yl)-1-methyl-1H-pyrazol-4-yl)-2-(2,6-difluorophenyl)thiazole-4-carboxamide] | 0.174
Cn1ncc(NC(=O)c2csc(-c3c(F)cccc3F)n2)c1[C@H]1CC[C@H](N)[C@@H](O)CO1 [Example 353, N-(5-((2R,5S,6R)-5-amino-6-hydroxyoxepan-2-yl)-1-methyl-1H-pyrazol-4-yl)-2-(2,6-difluorophenyl)thiazole-4-carboxamide] | 0.111
COc1cccc(-c2nc(C(=O)Nc3cnn(C)c3[C@@H]3CC[C@@H](N)[C@H](F)CO3)cs2)c1 [Example 357, N-(5-((2S,5R,6S)-5-amino-6-fluorooxepan-2-yl)-1-methyl-1H-pyrazol-4-yl)-2-(3-methoxyphenyl)thiazole-4-carboxamide] | 0.035
Cc1cccc(F)c1-c1nc(C(=O)Nc2cnn(C)c2[C@@H]2CC[C@@H](N)[C@H](F)CO2)c(C)s1 [Example 369, N-[5-[(2S,5R,6S)-5-amino-6-fluoro-oxepan-2-yl]-1-methyl-pyrazol-4-yl]-2-(2-fluoro-6-methyl-phenyl)-5-methyl-thiazole-4-carboxamide] | 3.59
Cn1ncc(NC(=O)c2ccc(F)c(-c3c(F)cc(Cl)cc3F)n2)c1[C@@H]1CC[C@@H](N)[C@H](F)CO1 [Example 375, N-(5-((2S,5R,6S)-5-amino-6-fluorooxepan-2-yl)-1-methyl-1H-pyrazol-4-yl)-6-(4-chloro-2,6-difluorophenyl)-5-fluoropicolinamide] | 0.036
CN(C)C(=O)c1ccc(F)c(-c2nc(C(=O)Nc3cnn(C)c3[C@@H]3CC[C@@H](N)[C@H](F)CO3)cs2)c1F [Example 376, N-[5-[(2S,5R,6S)-5-amino-6-fluoro-oxepan-2-yl]-1-methyl-pyrazol-4-yl]-2-[3-(dimethylcarbamoyl)-2,6-difluoro-phenyl]thiazole-4-carboxamide] | 0.727
COc1ccc(C(F)F)c(F)c1-c1nc(C(=O)Nc2cnn(C)c2[C@@H]2CC[C@@H](N)[C@H](F)CO2)cs1 [Example 378, N-[5-[(2S,5R,6S)-5-amino-6-fluoro-oxepan-2-yl]-1-methyl-pyrazol-4-yl]-2-[3-(difluoromethyl)-2-fluoro-6-methoxy-phenyl]thiazole-4-carboxamide] | 1.48
Cn1ncc(NC(=O)c2csc(-c3c(F)cccc3CO)n2)c1[C@@H]1CC[C@@H](N)[C@H](F)CO1 [Example 382, N-[5-[(2S,5R,6S)-5-amino-6-fluoro-oxepan-2-yl]-1-methyl-pyrazol-4-yl]-2-[2-fluoro-6-(hydroxymethyl)phenyl]thiazole-4-carboxamide] | 7.2
CC(=O)Nc1ccc(-c2nc(C(=O)Nc3cnn(C)c3[C@@H]3CC[C@@H](N)[C@H](F)CO3)cs2)cn1 [Example 386, 2-(6-acetamido-3-pyridyl)-N-[5-[(2S,5R,6S)-5-amino-6-fluoro-oxepan-2-yl]-1-methyl-pyrazol-4-yl]thiazole-4-carboxamide] | 0.389

Other lines, results leading:

Ki [nM] | SMILES
0.157 | Cn1ncc(NC(=O)c2csc(-n3cccn3)n2)c1[C@@H]1CC[C@@H](N)[C@H](F)CO1 [Example 388, N-(5-((2S,5R,6S)-5-amino-6-fluorooxepan-2-yl)-1-methyl-1H-pyrazol-4-yl)-2-(1H-pyrazol-1-yl)thiazole-4-carboxamide]
0.02 | Cn1ncc(NC(=O)c2csc(-n3ncc4c3CCCC4)n2)c1[C@@H]1CC[C@@H](N)[C@H](F)CO1 [Example 389, N-(5-((2S,5R,6S)-5-amino-6-fluorooxepan-2-yl)-1-methyl-1H-pyrazol-4-yl)-2-(4,5,6,7-tetrahydro-1H-indazol-1-yl)thiazole-4-carboxamide]
0.267 | Cn1ncc(NC(=O)c2csc(-n3cc4c(n3)CCCC4)n2)c1[C@@H]1CC[C@@H](N)[C@H](F)CO1 [Example 390, N-(5-((2S,5R,6S)-5-amino-6-fluorooxepan-2-yl)-1-methyl-1H-pyrazol-4-yl)-2-(4,5,6,7-tetrahydro-2H-indazol-2-yl)thiazole-4-carboxamide]
0.024 | Cn1ncc(NC(=O)c2csc(-c3c(F)cc4c(c3F)OCC4)n2)c1[C@@H]1CC[C@@H](N)[C@H](F)CO1 [Example 391, N-(5-((2S,5R,6S)-5-amino-6-fluorooxepan-2-yl)-1-methyl-1H-pyrazol-4-yl)-2-(5,7-difluoro-2,3-dihydrobenzofuran-6-yl)thiazole-4-carboxamide]
0.041 | Cc1cc(F)c(-c2nc(C(=O)Nc3cnn(C)c3[C@@H]3CC[C@@H](N)[C@H](F)CO3)ccc2F)c(F)c1 [Example 392, N-(5-((2S,5R,6S)-5-amino-6-fluorooxepan-2-yl)-1-methyl-1H-pyrazol-4-yl)-6-(2,6-difluoro-4-methylphenyl)-5-fluoropicolinamide]
0.003 | Cn1ncc(NC(=O)c2csc(-c3ccc(C4(C)COC4)cc3F)n2)c1[C@@H]1CC[C@@H](N)[C@H](F)CO1 [Example 393, N-(5-((2S,5R,6S)-5-amino-6-fluorooxepan-2-yl)-1-methyl-1H-pyrazol-4-yl)-2-(2-fluoro-4-(3-methyloxetan-3-yl)phenyl)thiazole-4-carboxamide]
0.018 | Cn1ncc(NC(=O)c2csc(-c3c(F)cc(C(C)(F)F)cc3F)n2)c1[C@@H]1CC[C@@H](N)[C@H](F)CO1 [Example 394, N-(5-((2S,5R,6S)-5-amino-6-fluorooxepan-2-yl)-1-methyl-1H-pyrazol-4-yl)-2-(4-(1,1-difluoroethyl)-2,6-difluorophenyl)thiazole-4-carboxamide]
0.085 | Cn1ncc(NC(=O)c2csc(-n3ncc4ccccc43)n2)c1[C@@H]1CC[C@@H](N)[C@H](F)CO1 [Example 395, N-(5-((2S,5R,6S)-5-amino-6-fluorooxepan-2-yl)-1-methyl-1H-pyrazol-4-yl)-2-(1H-indazol-1-yl)thiazole-4-carboxamide]
0.002 | Cn1ncc(NC(=O)c2csc(-n3cc4ccccc4n3)n2)c1[C@@H]1CC[C@@H](N)[C@H](F)CO1 [Example 396, N-(5-((2S,5R,6S)-5-amino-6-fluorooxepan-2-yl)-1-methyl-1H-pyrazol-4-yl)-2-(2H-indazol-2-yl)thiazole-4-carboxamide]
0.016 | Cn1ncc(NC(=O)c2ccc(F)c(-c3c(F)cccc3F)n2)c1[C@@H]1CC[C@@H](N)[C@H](F)CO1 [Example 397, N-[5-[(2S,5R,6S)-5-amino-6-fluoro-oxepan-2-yl]-1-methyl-pyrazol-4-yl]-6-(2,6-difluorophenyl)-5-fluoro-pyridine-2-carboxamide]
0.004 | Cc1cccnc1-c1nc(C(=O)Nc2cnn(C)c2[C@@H]2CC[C@@H](N)[C@H](F)CO2)c(N)s1 [Example 398, 5-amino-N-[5-[(2S,5R,6S)-5-amino-6-fluoro-oxepan-2-yl]-1-methyl-pyrazol-4-yl]-2-(3-methyl-2-pyridyl)thiazole-4-carboxamide]

— patent US9328106B2, “Cyclic ether pyrazol-4-yl-heterocyclyl-carboxamide compounds and methods of use” (Genentech, Inc., priority 2012, dated 2016)
